The record followed here is patent publication US9440933B2, “Azole derivative, method for producing same, intermediate compound, and agricultural or horticultural chemical agent and industrial material protecting agent” (KUREHA CORPORATION, priority 2011, dated 2016).

Series [1] deals with wheat leaf blight-causing microbe. In words: Antimicrobial activity to wheat leaf blight-causing microbe (PDA plate, hyphal expansion inhibition). It counts as cell-based, Septoria tritici. Conditions: 336 h, PDA medium, 25° C., 14 days; for inhibition at 50 µg/mL: Concentration 50 mg/L, read-out: Growth inhibition; for inhibition at 1.25 µg/mL: test sample concentration 1.25 mg/L, read-out: hyphal expansion-inhibiting rate. As to the method: In this Test Example, antimicrobial activity of the inventive compounds to wheat leaf blight-causing microbe was determined and compared with that of the comparative compound (1).

Series [2] deals with wheat leaf rust-causing microbe. In words: Wheat leaf rust-controlling activity (foliar spray, pot test). It is filed as in vivo, Puccinia recondita.
The test system is the same in series [3]. In words: Control activity of wheat leaf rust by seed treatment (pot test). It is filed as in vivo, Puccinia recondita. Conditions: 2 mg in DMSO applied to wheat seeds 10 g, inoculated 21 days after seeding. As to the method: Controlling activity to wheat leaf rust was examined in a pot test. […] The solution prepared was applied to wheat seeds 10 g in a vial and 8 wheat seeds were seeded in a 80 cm^2 pot. The seeds were grown in greenhouse, as water was supplied from below; a wheat leaf rust-causing microbe was inoculated 21 days after seeding; and the pot was stored in a constant-humidity box for 2 days. The plant was grown in green house, as water was supplied from below, and the incidence rate was determined and the controlling rate calculated […]. The controlling rate was calculated according to the equation below and used as the wheat leaf rust-controlling rate. Controlling rate=(1−Incidence rate in treated region/Incidence rate in non-treated region)×100(%)

In series [4] the test system is wheat. As to the kind of experiment: Damage (necrosis) to wheat by seed treatment (pot test). Conditions: 2 mg in DMSO applied to wheat seeds 1 g, 12 days after seeding. It counts as in vivo. Here is the method:
Damage (necrosis) to wheat was examined in a pot test. An inventive compound 1-2 and a comparative compound (1) were dissolved in DMSO (18 μl) respectively in an amount of 2 mg. The solution thus prepared was applied to wheat seeds 1 g in a vial and 8 seeds were seeded in a 80 cm^2 pot. The plant was grown in green house, as water was supplied from below, and the damage was determined 12 days after seeding.

In series [5] the test system is wheat powdery mildew-causing microbes. As to the kind of experiment: Controlling activity to wheat powdery mildew of seed treatment (pot test). It counts as in vivo, Erysiphe graminis f. sp tritici. Conditions: 2 mg in DMSO applied to wheat seeds 1 g, 14 to 28 days after seeding. Summed up:
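Wheat seeds (1 g) coated with 2 mg compound in 18 μl DMSO, sown 8 per pot and grown in a greenhouse under natural powdery mildew pressure with bottom watering. Incidence scored 14–28 days after seeding; controlling rate = (1 − treated/untreated incidence) × 100, plus controlling index.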

Series [6] concerns wheat. As to the kind of experiment: Damage to wheat (growth inhibition) by seed treatment (pot test). Conditions: 2 mg in DMSO applied to wheat seeds 1 g, 14 to 28 days after seeding, larger index = smaller damage.
Series [7] concerns Wheat fusarium blight-causing microbe (Fusarium graminearum). It counts as cell-based. Conditions: 50 mg/L.
The test system of series [8] is Rice blast-causing microbe (Pyricularia oryzae). It counts as cell-based. Conditions: 50 mg/L.
For series [9], the system named is Wheat glume blotch-causing microbe (Phaeosphaeria nodorum). As to the kind of experiment: Antimicrobial activity to various pathogenic microbes: P.n. Conditions: 50 mg/L.
Experimental: (§1) An inventive compound was dissolved in dimethylsulfoxide 2 ml. The solution 0.6 ml was added to a PDA medium (potato-dextrose-agar medium) 60 ml at around 60° C.
(§2) A flat plate containing a test microbe (wheat leaf blight-causing microbe) cultured separately was punched into pieces with a cork borer having a diameter of 4 mm and the circular plate obtained was placed on the flat plate media containing the chemical described above. The plates were cultured at 25° C. for 14 days after inoculation and the diameter of the microbial colony was determined. Hyphal expansion-inhibiting rate was calculated according to the following equation: R=100(dc−dt)/dc (wherein, R: hyphal expansion-inhibiting rate (%), dc: diameter of microbial colony on non-treated flat plate, dt: diameter of microbial colony on chemically-treated flat plate).
(§3) In this Test Example, the antimicrobial activity of the inventive compounds to various plant disease-causing fungi and industrial material-eroding microorganisms was studied by the method described in Example 1.
(§4) The results thus obtained were evaluated in 5 stages according to the criteria below:
Wheat glume blotch-causing microbe (Phaeosphaeria nodorum) P.n
The subject of series [10] is Wheat eye spot-causing microbe (Pseudocercoporella herpotrichoides). As to the kind of experiment: Antimicrobial activity to various pathogenic microbes: P.h. Conditions: 50 mg/L.
Series [11] concerns Barley loose smut-causing microbe (Ustilago nuda). In words: Antimicrobial activity to various pathogenic microbes: U.n. Conditions: 50 mg/L.
Experimental: as §1
The plates were cultured at 25° C. for 14 days after inoculation and the diameter of the microbial colony was determined. Hyphal expansion-inhibiting rate was calculated according to the following equation: R=100(dc−dt)/dc (wherein, R: hyphal expansion-inhibiting rate (%), dc: diameter of microbial colony on non-treated flat plate, dt: diameter of microbial colony on chemically-treated flat plate).
as §4
Barley loose smut-causing microbe (Ustilago nuda) U.n
The test system of series [12] is Rice bakanae disease-causing microbe (Gibberella fujikuroi). As to the kind of experiment: Antimicrobial activity to various pathogenic microbes: G.f. Conditions: 50 mg/L.
Experimental: as §1, §2, §4
Series [13] concerns Apple alternaria blotch-causing microbe (Alternaria alternata). As to the kind of experiment: Antimicrobial activity to various pathogenic microbes: A.m. Conditions: 50 mg/L.
In series [14] the test system is Sclerotinia rot-causing microbe (Sclerotinia sclerotiorum). In words: Antimicrobial activity to various pathogenic microbes: S.s. Conditions: 50 mg/L.
Series [15] deals with Gray mold-causing microbe (Botrytis cinerea). As to the kind of experiment: Antimicrobial activity to various pathogenic microbes: B.c. Conditions: 50 mg/L.
Experimental: as §1, §2, §3, §4
Gray mold-causing microbe (Botrytis cinerea) B.c
In series [16] the test system is Cucumber Fusarium wilt-causing microbe (Fusarium oxysporum). As to the kind of experiment: Antimicrobial activity to various pathogenic microbes: F.c. Conditions: 50 mg/L.
Experimental: as §1, §2, §4
Series [17] deals with Barley scald-causing microbe (Rhynchosporium secalis). As to the kind of experiment: Antimicrobial activity to various pathogenic microbes: R.sec. Conditions: 50 mg/L.
Experimental: as §1, §2, §3, §4
Barley scald-causing microbe (Rhynchosporium secalis) R.sec
The mark [18] stands for this setting: Concentration 25 g/ha, wettable powder sprayed on wheat (Norin No. 61), 9 to 14 days after inoculation.

Consider `CC1(C)CC[C@H](Cc2ccc(Cl)cc2)[C@@]1(O)Cn1cncn1` (racemic) [Compound (1), (1RS,5SR)-5-(4-chlorobenzyl)-2-dimethyl-1-(1H-1,2,4-triazol-1-ylmethyl)cyclopentanol, reference compound], for which the inhibition at 50 µg/mL in series [1] is greater than 80%. Also, in series [1], the inhibition at 1.25 µg/mL was 60 to 80%. Moreover, the Controlling index in [2] (setting [18]) is 5 (81 to 100); in series [2] (test sample concentration 1 g/ha, wettable powder sprayed on wheat) it was 4 (61 to 80). Moreover, the “controlling rate (wheat leaf rust)” value in [3] stood at 88%. For the same compound, the “Damage (necrosis)” value in series [4] is “necrotic symptom”. Besides, the “Controlling index Wheat powdery mildew” value in series [5] was 5 (Controlling rate: 40 or more). The “Damage index Growth inhibition” value in series [6] was 0 (80% or more).

In the case of `COC(=O)[C@]1(C)CC[C@@H](Cc2ccc(Cl)cc2)[C@]1(O)Cn1cncn1` (racemic) [Compound I-2, methyl-(1RS,2RS,3SR)-3-(4-chlorobenzyl)-2-hydroxy-1-methyl-2-(1H-1,2,4-triazol-1-ylmethyl)cyclopentanecarboxylate], in [1], the inhibition at 50 µg/mL was greater than 80% and the inhibition at 1.25 µg/mL was no less than 80%. In addition, the Controlling index in series [2] (setting [18]) is recorded as 5 (81 to 100). The “Growth inhibition (hyphal expansion-inhibiting rate grade) F.g” value in [7] was 5 (hyphal expansion-inhibiting rate: 80% or more). Besides, the “Growth inhibition (hyphal expansion-inhibiting rate grade) P.o” value in series [8] is recorded as 5 (hyphal expansion-inhibiting rate: 80% or more). Besides, the “controlling rate (wheat leaf rust)” value in [3] turned out to be 95%. The “Damage (necrosis)” value in [4] is “no necrotic symptom”. In [5], the “Controlling index Wheat powdery mildew” value is 5 (Controlling rate: 40 or more). In addition, the “Growth inhibition (hyphal expansion-inhibiting rate grade) P.n” value in series [9] is listed as 5 (hyphal expansion-inhibiting rate: 80% or more). Besides, the “Growth inhibition (hyphal expansion-inhibiting rate grade) P.h” value in series [10] is listed as 5 (hyphal expansion-inhibiting rate: 80% or more). Moreover, in series [11], the “Growth inhibition (hyphal expansion-inhibiting rate grade) U.n” value is given as 5 (hyphal expansion-inhibiting rate: 80% or more). The “Growth inhibition (hyphal expansion-inhibiting rate grade) G.f” value in [12] is given as 5 (hyphal expansion-inhibiting rate: 80% or more). Moreover, the “Growth inhibition (hyphal expansion-inhibiting rate grade) A.m” value in [13] is 5 (hyphal expansion-inhibiting rate: 80% or more). In addition, in series [14], the “Growth inhibition (hyphal expansion-inhibiting rate grade) S.s” value is 5 (hyphal expansion-inhibiting rate: 80% or more). Moreover, in [15], the “Growth inhibition (hyphal expansion-inhibiting rate grade) B.c” value was 5 (hyphal expansion-inhibiting rate: 80% or more). Moreover, in series [16], the “Growth inhibition (hyphal expansion-inhibiting rate grade) F.c” value is listed as 5 (hyphal expansion-inhibiting rate: 80% or more). Further, in series [17], the “Growth inhibition (hyphal expansion-inhibiting rate grade) R.sec” value was 5 (hyphal expansion-inhibiting rate: 80% or more). Further, the “Damage index Growth inhibition” value in [6] is 1 (60% or more and less than 80%).

`C=CCOC(=O)[C@]1(C)CC[C@H](Cc2ccc(Cl)cc2)[C@@]1(O)Cn1cncn1` (racemic) [Compound I-134, allyl-(1RS,2SR,3RS)-3-(4-chlorobenzyl)-2-hydroxy-1-methyl-2-(1H-1,2,4-triazol-1-ylmethyl)cyclopentanecarboxylate]: in series [1], the inhibition at 50 µg/mL was greater than 80%. In series [2] (setting [18]), the Controlling index was 5 (81 to 100). The “Growth inhibition (hyphal expansion-inhibiting rate grade) F.g” value in [7] is recorded as 5 (hyphal expansion-inhibiting rate: 80% or more). The “Growth inhibition (hyphal expansion-inhibiting rate grade) P.o” value in [8] is on record as 5 (hyphal expansion-inhibiting rate: 80% or more). Moreover, in series [5], the “Controlling index Wheat powdery mildew” value is 5 (Controlling rate: 40 or more). The “Growth inhibition (hyphal expansion-inhibiting rate grade) P.n” value in [9] was 5 (hyphal expansion-inhibiting rate: 80% or more). Also, the “Growth inhibition (hyphal expansion-inhibiting rate grade) P.h” value in series [10] was 5 (hyphal expansion-inhibiting rate: 80% or more). For the same compound, the “Growth inhibition (hyphal expansion-inhibiting rate grade) U.n” value in series [11] is recorded as 5 (hyphal expansion-inhibiting rate: 80% or more). Further, in series [12], the “Growth inhibition (hyphal expansion-inhibiting rate grade) G.f” value is reported as 5 (hyphal expansion-inhibiting rate: 80% or more). Besides, in series [13], the “Growth inhibition (hyphal expansion-inhibiting rate grade) A.m” value is 5 (hyphal expansion-inhibiting rate: 80% or more). Also, the “Growth inhibition (hyphal expansion-inhibiting rate grade) S.s” value in series [14] is reported as 5 (hyphal expansion-inhibiting rate: 80% or more). Also, the “Growth inhibition (hyphal expansion-inhibiting rate grade) B.c” value in series [15] is 5 (hyphal expansion-inhibiting rate: 80% or more). Moreover, the “Growth inhibition (hyphal expansion-inhibiting rate grade) F.c” value in series [16] was 5 (hyphal expansion-inhibiting rate: 80% or more). In series [17], the “Growth inhibition (hyphal expansion-inhibiting rate grade) R.sec” value is recorded as 5 (hyphal expansion-inhibiting rate: 80% or more). The “Damage index Growth inhibition” value in [6] was 3 (20% or more and less than 40%).
